Here are results for 19 compounds from paper PMC11206290, “Study of the Lipophilicity and ADMET Parameters of New Anticancer Diquinothiazines with Pharmacophore Substituents” (Pharmaceuticals, 2024).

One may read the chromatographic logP as a lipophilicity value derived from retention on a column. For orientation: IC50 means the concentration needed to halve the response being measured.

A short description of data set [1]: RP-TLC lipophilicity (RP-18 plates, acetone–TRIS buffer pH 7.4). The following applies: for C0: C0 = −RM0/b; for RM0: RP-18, acetone–TRIS buffer pH 7.4, extrapolated to zero acetone concentration; for b / -b: slope of RM = RM0 + bC; for b: compounds 1–15; for -b: standards I–V.
Procedure: (§1) RP-18 plates were used as the stationary phase, while organic modifiers containing acetone were used as the mobile phase. The linear relationship between RM0 and acetone concentration was determined on the basis of Equation (2) (Table 2). In addition to this, thanks to the relationship observed between RM0 and the slope of these linear plots (b), the lipophilicity parameter C0 was also determined (Table 2).
(§2) All chromatographic experiments were performed on a silica gel 60 RP-18 F254S (10 cm × 10 cm) RP-TLC plate (Merck, Darmstadt, Germany). The mobile phase was prepared by mixing the respective amount of aqueous TRIS (tris(hydroxymethyl)aminomethane) buffer, pH = 7.4 (ionic strength 0.2 M), to meet physiological conditions and acetone in a range from 50 to 80% (v/v) in increments of 5%. […] Before plate development, the chromatographic chambers were saturated with the mobile phase for 0.5 h. […] Each chromatographic experiment was run in triplicate, and then mean values of the retardation factor, i.e., RF values, were used to determine the RMW values of the compounds.
(§3) Next, the chromatographic data in the form of RM0 and coefficient b were used to calculate the lipophilicity parameter C0 [56] from the following Equation (3):(3) C0=−RM0/b
Data set [2] concerns non-small lung carcinoma H1299. On the set-up: method as in PMID 36014495. As to conditions: H1299 ref 25; cited from earlier work.
The test system of the next data set is BEAS-2B cells. On the set-up: method as in PMID 36014495. As to conditions: BEAS-2B cells at IC50 doses against A549 or H1299 cells ref 25; cited from earlier work.
The subject of data set [3] is lung cancer A549 cell line. On the set-up: method as in PMID 30981160. As to conditions: A549 cell line ref 24; cited from earlier work.
The test system of data set [4] is human lung carcinoma A549. On the set-up: method as in PMID 36014495. The following applies: A549 ref 25; cited from earlier work.
In another data set the test system is NHDF cells. On the set-up: method as in PMID 36014495. The following applies: NHDF cells at IC50 doses against A549 or H1299 cells ref 25; cited from earlier work.
Another data set concerns BCL-2 expression. On the set-up: method as in PMID 30981160. As to conditions: RT-QPCR, A549 and SNB-19 ref 24; cited from earlier work.
The next data set has as its system BAX expression. On the set-up: method as in PMID 30981160. The following applies: RT-QPCR, cancer cell lines ref 24; cited from earlier work.
The subject of data set [5] is glioblastoma SNB-19 cell line. On the set-up: method as in PMID 30981160. The following applies: SNB-19 cell line ref 24; cited from earlier work.

The structures appear in SMILES notation.

Procedure for physchem: as §1, §2, §3

In the case of `CCN(CC)CCN1c2cnc3ccccc3c2Sc2cc3ccccc3nc21` [Compound 1, 7-(2'-Diethylaminoethyl)diquino[3,2-b;3 ',4'-e]thiazine], in data set [1], the C0 turned out to be 0.7233, the RM0 is 3.45 and the b is −4.77. The chromatographic logP in the data set “physchem” is 4.64.
Regarding `CN(C)CCCN1c2cnc3ccccc3c2Sc2cc3ccccc3nc21` [Compound 2, 7-(3'-Dimethylaminopropyl)diquino[3,2-b;3 ',4'-e]thiazine], the “In vitro anticancer activity” value in data set [2] and in data set [4] was “significant in vitro anticancer activity” in each case. In data set [1], this compound displayed a C0 of 0.7359. In [1], the RM0 is 3.01. For the same compound, in data set [1], the b was −4.09. Also, the Lethal effect result with BEAS-2B cells and with NHDF cells was “weak lethal effect” throughout. The IC50 in [3] is 300 nM. In addition, the chromatographic logP in the data set “physchem” was found to be 4.08.
For the compound `c1ccc2nc3c(cc2c1)Sc1c(cnc2ccccc12)N3CCN1CCCC1` [Compound 3, 7-(1'-Pyrolidinylethyl)diquino[3,2-b;3 ',4'-e]thiazine], in [1], the C0 turned out to be 0.7210, the RM0 is on record as 3.05 and the b was −4.23.
As to `c1ccc2nc3c(cc2c1)Sc1c(cnc2ccccc12)N3CCN1CCCCC1` [Compound 4, 7-(1'-Piperidinylethyl)diquino[3,2-b;3 ',4'-e]thiazine], in data set [1], the C0 is recorded as 0.7117, the RM0 was 3.48 and the b is −4.89. In “physchem”, this compound displayed a chromatographic logP of 4.68.
The corresponding values for `CN1CCCCC1CCN1c2cnc3ccccc3c2Sc2cc3ccccc3nc21` (stereo not drawn) [Compound 5, 7-(1'-M ethyl-2 '-piperydinylethyl)diquino[3,2-b;3 ',4'-e]thiazine] are 0.7082, 3.64, −5.14 and 4.89.
In the same order, the values of `CCN(CC)CCN1c2ccc3ncccc3c2Sc2cc3ccccc3nc21` [Compound 6, 7-(2'-Diethylaminoethyl)diquino[3,2-b;6 ',5'-e]thiazine] are 0.7588, 3.68, −4.85 and 4.94.
The corresponding values for `CN(C)CCCN1c2ccc3ncccc3c2Sc2cc3ccccc3nc21` [Compound 7, 7-(3'-Dimethylaminopropyl)diquino[3,2-b;6 ',5'-e]thiazine] are 0.7627, 3.31, −4.34 and 4.46.
With `c1ccc2nc3c(cc2c1)Sc1c(ccc2ncccc12)N3CCN1CCCC1` [Compound 8, 7-(1'-Pyrolidinylethyl)diquino[3,2-b;6 ',5'-e]thiazine], the “Expression of BCL-2” value in the data set with BCL-2 expression is given as “markedly reduced”. Moreover, in [1], the C0 came to 0.7565, the RM0 is 3.48 and the b is reported as −4.60. For the same compound, the “Expression of BAX” value in the data set on BAX expression was “markedly reduced”. The IC50 in [5] was 300 nM.
With `c1ccc2nc3c(cc2c1)Sc1c(ccc2ncccc12)N3CCN1CCCCC1` [Compound 9, 7-(1'-Piperidinylethyl)diquino[3,2-b;6 ',5'-e]thiazine], in [1], the C0 is 0.7562, the RM0 is 3.69 and the b was −4.88. This compound also showed a chromatographic logP in “physchem” of 4.95.
In the same order, the values of `CN1CCCCC1CCN1c2ccc3ncccc3c2Sc2cc3ccccc3nc21` (stereo not drawn) [Compound 10, 7-(1'-M ethyl-2 '-piperydinylethyl)diquino[3,2-b;6 ',5'-e]thiazine] are 0.7599, 3.83, −5.04 and 5.13.
In the same order, the values of `CCN(CC)CCN1c2nc3ccccc3cc2Sc2ccc3cccnc3c21` [Compound 11, 14-(2'-Diethylaminoethyl)diquino[3,2-b;8 ',7'-e]thiazine] are 0.7579, 3.60, −4.75 and 4.84.
Consider `CN(C)CCCN1c2nc3ccccc3cc2Sc2ccc3cccnc3c21` [Compound 12, 14-(3'-Dimethylaminopropyl)diquino[3,2-b;8 ',7'-e]thiazine], for which, in data set [1], the C0 was determined as 0.7458, the RM0 was 3.17 and the b is listed as −4.25. In “physchem”, this compound displayed a chromatographic logP of 4.28.
In the same order, the values of `c1ccc2nc3c(cc2c1)Sc1ccc2cccnc2c1N3CCN1CCCC1` [Compound 13, 14-(1'-Pyrolidinylethyl)diquino[3,2-b;8 ',7'-e]thiazine] are 0.7672, 3.23, −4.21 and 4.36.
In the same order, the values of `c1ccc2nc3c(cc2c1)Sc1ccc2cccnc2c1N3CCN1CCCCC1` [Compound 14, 14-(1'-Piperidinylethyl)diquino[3,2-b;8 ',7'-e]thiazine] are 0.7697, 3.61, −4.69 and 4.85.
In the same order, the values of `CN1CCCCC1CCN1c2nc3ccccc3cc2Sc2ccc3cccnc3c21` (stereo not drawn) [Compound 15, 14-(1'-M ethyl-2 '-piperydinylethyl)diquino[3,2-b;8 ',7'-e]thiazine] are 0.7625, 3.82, −5.01 and 5.12.
For the compound `CC(=O)Nc1ccccc1` [Standard I, acetanilide, reference compound], the RM0 in data set [1] is listed as 0.78.
`O=C(O)c1ccccc1` [Standard II, benzoic acid, reference compound]: in data set [1], the RM0 is on record as 1.16 and the “-b” value is on record as 0.0247.
The corresponding values for `c1ccc2cc3ccccc3cc2c1` [Standard IV, anthracene, reference compound] are 3.33 and 0.0412.
In the case of `Clc1ccc(C(c2ccc(Cl)cc2)C(Cl)(Cl)Cl)cc1` [Standard V, p,p′-DDT, reference compound], the RM0 in [1] was 4.69.
